Test results as given in patent US12371430B2, “5-morpholin-4-yl-pyrazolo[4,3-b]pyridine derivatives” (Merck Patent GmbH, priority 2018, dated 2025).

Assays:
[1] = test system: phosphorylation of Chk1 (Ser 345) in HT29 colon adenocarcinoma cells; experiment: pCHK1 cellular assay; format: cell-based; conditions: Homo sapiens, HT-29, hydroxyurea 3 mM, 4 h
Description: Chk1 kinase acts downstream of ATR and has a key role in DNA damage checkpoint control. Activation of Chk1 involves phosphorylation of Ser317 and Ser345 (regarded as the preferential target for phosphorylation/activation by ATR) and occurs in response to blocked DNA replication and certain forms of genotoxic stress. Phosphorylation at Ser 345 serves to localize Chk1 to the nucleus following checkpoint activation.
This assay measures a decrease in phosphorylation of Chk1 (Ser 345) in HT29 colon adenocarcinoma cells following treatment with compound and hydroxyurea (which promotes fork stalling because of dNTP depletion) and using an immunocytochemical procedure and high content imaging.
For the assay HT29 cells are plated in culture medium (DMEM high Glucose (no phenol red), 2 mM Glutamax, 1 mM Pyruvate, 10% FCS into Greiner 384 well plates, black, μclear #781090 (2500 cells/well/30 μl) and incubated for at least 20 hours at 37° C., 10% CO2 and 90% rH. Diluted test compounds (1 nM-30 μM final) and hydroxyurea (3 mM final) are added simultaneously and cells are incubated for 4 h at 37° C. After fixation/prmeabilisation with 100% MeOH (−20° C. cold) and permeabilisation with 0.2% Triton X-100 a complete immunocytochemical procedure is performed using a specific anti-pChk1 antibody (Cell Signaling, #2348BF) and fluorescently labelled secondary antibody (Alexa Fluor® 488 goat anti-rabbit F(ab′)2 fragment, Invitrogen A11070) and parallel nuclear staining for cell counting.
The nuclear localised pChk1 signal is detected on an ImageXpress Ultra confocal high content reader and reported as % positive cells (nuclei).

ATR/ATRIP = ATR/ATRIP (Homo sapiens (Human), UniProt Q13535); experiment: ATR/ATRIP kinase assay (TR-FRET, p53 Ser15 phosphorylation); format: biochemical; conditions: 0.5 μM ATP, 50 nM p53
Method: ATR/ATRIP Kinase Assay—Measurement of ATR/ATRIP Inhibition
The IC50 value was determined by an ATR/ATRIP enzymatic assay. The assay comprises two steps: the enzymatic reaction and the detection step. First, a mixture of ATR/ATRIP protein (Ataxia Telangiectasia and Rad3-related protein/ATR interacting protein), the compound in question at different concentrations, p53 as substrate protein and adenosine triphosphate (ATP) are incubated in assay buffer. ATR phosporylates p53 at Ser15 and other residues. The amount of phosphorylated p53 is then detected using specific antibodies and the TR-FRET assay technology.
In detail: The ATR/ATRIP enzymatic assay is performed as a TR-FRET-(HTRF™, Cisbio Bioassays) based 384-well assay. In a first step, purified human recombinant ATR/ATRIP (human ATR, full length, GenBank ID: NM_001184.3, and human ATRIP, full length, GenBank ID AF451323.1, co-expressed in a mammalian cell line) is incubated in assay buffer for 15 minutes at 22° C. with test compound at different concentrations or without test compound (as a negative control). The assay buffer contains 25 mM HEPES pH 8.0, 10 mM Mg(CH3COO)2, 1 mM MnCl2, 0.1% BSA, 0.01% Brij® 35, and 5 mM dithiothreitol (DTT). An Echo 555 (Labcyte) is used for dispensing of compound solutions. Then, in a second step, purified human recombinant cmyc-tagged p53 (human p53, full length, GenBank ID: BC003596, expressed in Sf21 insect cells) and ATP are added and the reaction mixture is incubated for 25-35 minutes, typically 25 minutes, at 22° C. The pharmacologically relevant assay volume is 5 μl. The final concentrations in the assay during incubation of the reaction mixture are 0.3-0.5 nM, typically 0.3 nM, ATR/ATRIP, 50 nM p53, and 0.5 μM ATP. The enzymatic reaction is stopped by the addition of EDTA. The generation of phosphorylated p53 as a result of the ATR mediated reaction in the presence of ATP is detected by using specific antibodies [labeled with the fluorophores europium (Eu) as donor and d2 as acceptor (Cisbio Bioassays)] enabling FRET. For this purpose, 2 μl of antibody-containing stop solution (12.5 mM HEPES pH 8.0, 125 mM EDTA, 30 mM sodium chloride, 300 mM potassium fluoride, 0.006% Tween-20, 0.005% Brij® 35, 0.21 nM anti-phospho-p53(Ser15)-Eu antibody, 15 nM anti-cmyc-d2 antibody) are added to the reaction mixture. Following signal development for 2 h the plates are analyzed in an EnVision (PerkinElmer) microplate reader using the TRF mode with laser excitation. Upon excitation of the donor europium at 340 nm the emitted fluorescence light of the acceptor d2 at 665 nm as well as from the donor Eu at 615 nm are measured. The amount of phosphorylated p53 is directly proportional to the ratio of the amounts of emitted light i.e. the ratio of the relative fluorescence units (rfu) at 665 nm and 615 nm. Data are processed employing the Genedata Screener software. In particular, IC50 values are determined in the usual manner by fitting a dose-response curve to the data points using nonlinear regression analysis. • IC50=half maximal inhibitory concentration • ATP=Adenosine triphosphate • TR-FRET=Time-Resolved Fluorescence Resonance Energy Transfer • HTRF®=Homogeneous Time Resolved Fluorescence • HEPES=2-(4-(2-Hydroxyethyl)-1-piperazinyl)-ethanesulfonic acid • Mg(CH3COO)2=Magnesium acetate • MnCl2=Manganese(II)-chloride • BSA=Bovine Serum Albumin • EDTA=Ethylendiamine Tetraacetate • TRF=Time Resolved Fluorescence pCHK1 Cellular Assay

Chain of ATR/ATRIP (Q13535 whole entry): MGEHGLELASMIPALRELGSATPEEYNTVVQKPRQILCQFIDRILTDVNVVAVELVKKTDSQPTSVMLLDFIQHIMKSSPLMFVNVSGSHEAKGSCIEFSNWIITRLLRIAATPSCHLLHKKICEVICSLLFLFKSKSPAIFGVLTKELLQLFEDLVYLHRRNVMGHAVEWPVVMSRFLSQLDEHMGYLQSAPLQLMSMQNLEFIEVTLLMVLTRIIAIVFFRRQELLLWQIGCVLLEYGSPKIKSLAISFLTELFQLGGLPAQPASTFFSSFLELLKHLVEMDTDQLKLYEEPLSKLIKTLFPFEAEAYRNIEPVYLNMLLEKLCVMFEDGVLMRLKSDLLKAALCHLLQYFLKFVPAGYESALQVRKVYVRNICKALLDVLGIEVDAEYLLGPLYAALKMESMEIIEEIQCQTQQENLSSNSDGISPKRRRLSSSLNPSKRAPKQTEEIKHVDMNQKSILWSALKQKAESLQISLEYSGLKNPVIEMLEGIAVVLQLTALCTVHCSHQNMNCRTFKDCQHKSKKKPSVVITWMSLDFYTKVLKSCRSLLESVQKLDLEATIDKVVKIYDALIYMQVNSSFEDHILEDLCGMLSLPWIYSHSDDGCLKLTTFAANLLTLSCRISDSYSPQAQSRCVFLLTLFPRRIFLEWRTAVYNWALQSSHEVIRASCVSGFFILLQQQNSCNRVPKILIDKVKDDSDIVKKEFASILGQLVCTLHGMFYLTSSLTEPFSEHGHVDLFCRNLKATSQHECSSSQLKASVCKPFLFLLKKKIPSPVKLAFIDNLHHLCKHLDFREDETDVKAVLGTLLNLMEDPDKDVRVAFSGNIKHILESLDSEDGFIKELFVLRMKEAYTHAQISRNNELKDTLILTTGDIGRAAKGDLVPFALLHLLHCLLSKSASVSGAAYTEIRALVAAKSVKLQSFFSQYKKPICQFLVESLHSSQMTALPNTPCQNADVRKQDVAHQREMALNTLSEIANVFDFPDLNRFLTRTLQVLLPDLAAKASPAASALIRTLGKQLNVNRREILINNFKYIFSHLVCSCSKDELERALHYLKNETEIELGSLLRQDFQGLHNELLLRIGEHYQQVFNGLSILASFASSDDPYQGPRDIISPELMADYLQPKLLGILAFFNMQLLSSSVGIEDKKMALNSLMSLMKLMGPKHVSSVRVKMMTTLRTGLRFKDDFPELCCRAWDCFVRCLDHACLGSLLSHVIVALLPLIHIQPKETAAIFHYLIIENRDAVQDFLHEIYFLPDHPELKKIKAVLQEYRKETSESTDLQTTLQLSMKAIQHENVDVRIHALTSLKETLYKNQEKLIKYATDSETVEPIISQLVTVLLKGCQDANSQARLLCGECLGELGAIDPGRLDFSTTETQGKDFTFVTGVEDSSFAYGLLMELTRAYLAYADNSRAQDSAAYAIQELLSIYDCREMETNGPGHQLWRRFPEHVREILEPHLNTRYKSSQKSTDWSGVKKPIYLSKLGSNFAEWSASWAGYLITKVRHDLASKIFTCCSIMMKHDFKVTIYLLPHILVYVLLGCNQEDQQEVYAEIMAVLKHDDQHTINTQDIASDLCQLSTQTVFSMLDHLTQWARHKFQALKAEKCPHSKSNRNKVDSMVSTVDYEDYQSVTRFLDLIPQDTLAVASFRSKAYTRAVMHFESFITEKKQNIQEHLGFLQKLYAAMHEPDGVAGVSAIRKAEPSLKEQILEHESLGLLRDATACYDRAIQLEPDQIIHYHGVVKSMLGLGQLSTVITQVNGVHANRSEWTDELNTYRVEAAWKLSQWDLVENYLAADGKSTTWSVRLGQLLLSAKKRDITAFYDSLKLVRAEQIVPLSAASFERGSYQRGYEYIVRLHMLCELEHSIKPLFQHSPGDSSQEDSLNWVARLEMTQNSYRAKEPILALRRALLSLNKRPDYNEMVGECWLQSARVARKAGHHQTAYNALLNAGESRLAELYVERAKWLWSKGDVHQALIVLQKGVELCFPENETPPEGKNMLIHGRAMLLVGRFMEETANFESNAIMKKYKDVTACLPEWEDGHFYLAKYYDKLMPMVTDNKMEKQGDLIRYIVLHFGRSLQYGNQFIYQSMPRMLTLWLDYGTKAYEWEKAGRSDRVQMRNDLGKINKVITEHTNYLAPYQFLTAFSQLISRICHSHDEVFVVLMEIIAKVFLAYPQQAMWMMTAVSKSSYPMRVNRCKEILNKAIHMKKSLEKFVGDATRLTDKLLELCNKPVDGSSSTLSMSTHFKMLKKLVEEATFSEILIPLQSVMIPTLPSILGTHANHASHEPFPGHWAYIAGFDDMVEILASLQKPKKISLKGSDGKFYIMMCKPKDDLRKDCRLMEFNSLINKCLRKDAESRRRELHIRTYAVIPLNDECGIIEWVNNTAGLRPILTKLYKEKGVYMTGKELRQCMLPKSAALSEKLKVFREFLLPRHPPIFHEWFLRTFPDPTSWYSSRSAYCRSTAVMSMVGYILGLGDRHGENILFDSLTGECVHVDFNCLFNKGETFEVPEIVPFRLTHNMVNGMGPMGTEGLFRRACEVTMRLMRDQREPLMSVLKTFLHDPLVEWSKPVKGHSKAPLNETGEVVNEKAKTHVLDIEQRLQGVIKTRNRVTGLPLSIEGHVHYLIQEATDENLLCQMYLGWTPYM
Chain of ATR/ATRIP (Q8WXE1 whole entry partner): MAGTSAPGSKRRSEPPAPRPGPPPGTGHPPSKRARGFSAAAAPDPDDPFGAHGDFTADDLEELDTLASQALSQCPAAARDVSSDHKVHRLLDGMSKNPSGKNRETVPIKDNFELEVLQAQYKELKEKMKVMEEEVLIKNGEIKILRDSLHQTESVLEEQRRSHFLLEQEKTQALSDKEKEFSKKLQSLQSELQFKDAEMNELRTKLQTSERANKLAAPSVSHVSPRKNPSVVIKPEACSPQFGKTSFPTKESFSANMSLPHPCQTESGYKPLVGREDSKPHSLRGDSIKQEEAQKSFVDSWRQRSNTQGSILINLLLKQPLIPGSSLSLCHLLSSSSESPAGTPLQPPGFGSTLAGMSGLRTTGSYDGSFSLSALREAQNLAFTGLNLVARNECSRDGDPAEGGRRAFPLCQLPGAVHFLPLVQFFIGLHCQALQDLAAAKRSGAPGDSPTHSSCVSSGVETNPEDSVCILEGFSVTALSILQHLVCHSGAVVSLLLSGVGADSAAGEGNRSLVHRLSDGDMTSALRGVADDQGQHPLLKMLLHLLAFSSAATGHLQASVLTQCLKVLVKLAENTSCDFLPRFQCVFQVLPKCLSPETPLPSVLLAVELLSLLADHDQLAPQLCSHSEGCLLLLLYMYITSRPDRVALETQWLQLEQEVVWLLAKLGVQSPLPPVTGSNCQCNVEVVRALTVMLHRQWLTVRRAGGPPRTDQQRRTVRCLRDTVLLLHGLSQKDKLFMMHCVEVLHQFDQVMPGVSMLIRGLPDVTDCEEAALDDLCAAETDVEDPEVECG

IC50 [1]	IC50 (ATR/ATRIP)	Compound
100 to 1000 nM	7.9 nM	C[C@@H]1COCCN1c1cc(-c2ccn(CCO)n2)c2c(n1)c(-c1cc[nH]n1)nn2C [Compound 37, 2-{3-[1-Methyl-5-((R)-3-methyl-morpholin-4-yl)-3-(1H-pyrazol-3-yl)-1H-pyrazolo[4,3-b]pyridin-7-yl]-pyrazol-1-yl}-ethanol]
1000 to 10000 nM	22 nM	Cc1cccnc1-c1cc(N2CCOC[C@H]2C)nc2c(-c3cc[nH]n3)nn(C)c12 [Compound 62, (3R)-3-Methyl-4-[1-methyl-7-(3-methylpyridin-2-yl)-3-(1H-pyrazol-3-yl)-1H-pyrazolo[4,3-b]pyridin-5-yl]morpholine]
< 10 nM	1.9 nM	C[C@@H]1COCCN1c1cc(-c2cccnc2C(F)(F)F)c2c(n1)c(-c1cc[nH]n1)nn2C [Compound 66, (3R)-3-Methyl-4-[1-methyl-3-(1H-pyrazol-3-yl)-7-[2-(trifluoro-methyl)pyridin-3-yl]-1H-pyrazolo[4,3-b]pyridin-5-yl]morpholine]
1000 to 10000 nM	20 nM	C[C@@H]1COCCN1c1cc(C(N)=O)c2c(n1)c(-c1cc[nH]n1)nn2C [Compound 32, 1-Methyl-5-((R)-3-methyl-morpholin-4-yl)-3-(1H-pyrazol-3-yl)-1H-pyrazolo[4,3-b]pyridine-7-carboxylic acid amide]
100 to 1000 nM	28 nM	C[C@@H]1COCCN1c1cc(CO)c2c(n1)c(-c1cc[nH]n1)nn2C [Compound 24, [1-Methyl-5-((R)-3-methyl-morpholin-4-yl)-3-(1H-pyrazol-3-yl)-1H-pyrazolo[4,3-b]pyridin-7-yl]-methanol]
100 to 1000 nM	1.2 nM	COCc1ccc(-c2cc(N3CCOC[C@H]3C)nc3c(-c4cc[nH]n4)nn(C)c23)cc1 [Compound 51, (3R)-4-{7-[4-(Methoxymethyl)phenyl]-1-methyl-3-(1H-pyrazol-3-yl)-1H-pyrazolo[4,3-b]pyridin-5-yl}-3-methylmorpholine]
10 to 100 nM	1.9 nM	Cc1nc([S@@+](C)[O-])ccc1-c1cc(N2CCOC[C@H]2C)nc2c(-c3cc[nH]n3)nn(C)c12 [Compound 10, (3R)-4-(7-{6-[(R)-Methanesulfinyl]-2-methylpyridin-3-yl}-1-methyl-3-(1H-pyrazol-3-yl)-1H-pyrazolo[4,3-b]pyridin-5-yl)-3-methylmorpholine]
100 to 1000 nM		C[C@@H]1COCCN1c1cc(C2=CC[S+]([O-])CC2)c2c(n1)c(-c1ccn[nH]1)nn2C (stereo partly drawn) [Compound 80, 4-[1-Methyl-5-[(3R)-3-methylmorpholin-4-yl]-3-(1H-pyrazol-5-yl)-1H-pyrazolo[4,3-b]pyridin-7-yl]-3,6-dihydro-2H-1lambda4-thiopyran-1-one]
100 to 1000 nM	33 nM	CNC(=O)c1cc(N2CCOC[C@H]2C)nc2c(-c3cc[nH]n3)nn(C)c12 [Compound 31, 1-Methyl-5-((R)-3-methyl-morpholin-4-yl)-3-(1H-pyrazol-3-yl)-1H-pyrazolo[4,3-b]pyridine-7-carboxylic acid methylamide]
1000 to 10000 nM	25 nM	C[C@@H]1COCCN1c1ccc2[nH]nc(-c3cc[nH]n3)c2n1 [Compound 56, (3R)-3-Methyl-4-[3-(1H-pyrazol-3-yl)-1H-pyrazolo[4,3-b]pyridin-5-yl]morpholine]
100 to 1000 nM	4.3 nM	C[C@@H]1COCCN1c1cc(-c2ccccn2)c2[nH]nc(-c3cc[nH]n3)c2n1 [Compound 38, (3R)-3-Methyl-4-[3-(1H-pyrazol-3-yl)-7-(pyridin-2-yl)-1H-pyrazolo[4,3-b]pyridin-5-yl]morpholine]
100 to 1000 nM	5.3 nM	CNC(=O)c1cc(N2CCOC[C@H]2C)nc2c(-c3cc[nH]n3)n[nH]c12 [Compound 28, 5-((R)-3-Methyl-morpholin-4-yl)-3-(1H-pyrazol-3-yl)-1H-pyrazolo[4,3-b]pyridine-7-carboxylic acid methylamide]
100 to 1000 nM		C[C@@H]1COCCN1c1cc(C2CCS(=O)(=O)CC2)c2c(n1)c(-c1ccn[nH]1)nn2C [Compound 82]
10 to 100 nM		C[C@@H]1COCCN1c1cc([C@H]2CCOC2)c2c(n1)c(-c1ccn[nH]1)nn2C [Compound 72, 1-Methyl-5-((R)-3-methyl-morpholin-4-yl)-3-(2H-pyrazol-3-yl)-7-(R)-tetrahydro-furan-3-yl-1H-pyrazolo[4,3-b]pyridine]
	510 nM	Cc1cc(S(C)(=O)=O)ncc1-c1cc(N2CCOC[C@H]2C)nc2c(-c3cc[nH]n3)n(C)nc12 [Compound 21, 7-(6-Methanesulfonyl-4-methyl-pyridin-3-yl)-2-methyl-5-((R)-3-methyl-morpholin-4-yl)-3-(1H-pyrazol-3-yl)-2H-pyrazolo[4,3-b]pyridine]
1000 to 10000 nM		C[C@@H]1COCCN1c1ccc2c(n1)c(-c1cc[nH]n1)nn2Cc1ccccn1 [Compound 88, (3R)-3-Methyl-4-[3-(1H-pyrazol-3-yl)-1-[(pyridin-2-yl)methyl]-1H-pyrazolo[4,3-b]pyridin-5-yl]morpholine]
	17 nM	Cc1nc(S(C)(=O)=O)ccc1-c1cc(N2CCOC[C@H]2C)nc2c(-c3cc(C(F)(F)F)n[nH]3)nn(C)c12 [Compound 74, (3R)-4-[7-(6-Methanesulfonyl-2-methylpyridin-3-yl)-1-methyl-3-[3-(trifluoromethyl)-1H-pyrazol-5-yl]-1H-pyrazolo[4,3-b]pyridin-5-yl]-3-methyl-morpholine]
1000 to 10000 nM		C[C@@H]1COCCN1c1ccc2c(n1)c(-c1cc[nH]n1)nn2Cc1cccnc1 [Compound 83, (3R)-3-Methyl-4-[3-(1H-pyrazol-3-yl)-1-[(pyridin-3-yl)methyl]-1H-pyrazolo[4,3-b]pyridin-5-yl]morpholine]
	1800 nM	C[C@@H]1COCCN1c1cc(O)c2c(n1)c(-c1ccn[nH]1)nn2C [Compound 45, 1-Methyl-5-((R)-3-methyl-morpholin-4-yl)-3-(2H-pyrazol-3-yl)-1H-pyrazolo[4,3-b]pyridin-7-ol]
10 to 100 nM		C[C@@H]1COCCN1c1cc(C2=CCSCC2)c2c(n1)c(-c1ccn[nH]1)nn2C [Compound 79, (3R)-4-[7-(3,6-Dihydro-2H-thiopyran-4-yl)-1-methyl-3-(1H-pyrazol-5-yl)-1H-pyrazolo[4,3-b]pyridin-5-yl]-3-methylmorpholine]
10 to 100 nM		Cc1c(-c2cc(N3CCOC[C@H]3C)nc3c(-c4cc[nH]n4)nn(C)c23)nnn1C [Compound 84, (3R)-4-[7-(1,5-Dimethyl-1H-1,2,3-triazol-4-yl)-1-methyl-3-(1H-pyrazol-3-yl)-1H-pyrazolo[4,3-b]pyridin-5-yl]-3-methylmorpholine]
